Data set [1] concerns human breast MDA-MB-361 tumor cell line. The data set can be described thus: In vitro cell culture growth assay (MTS), MDA-MB-361. The class given is cell-based. The following applies: Homo sapiens, MDA-MB-361, 72 h; MTS cell growth assay, three days after drug treatment; read-out: IC50 MDA-MB-361. In general terms: Formazan colour is commonly taken as a measure of viable cells.

The test system of data set [2] is human prostate PC3-mm2 tumor cell line. The data set can be described thus: In vitro cell culture growth assay (MTS), PC3-mm2. The format is cell-based. To be noted: Homo sapiens, PC3MM2, 72 h, MTS cell growth assay, three days after drug treatment, read-out: IC50 PC3-mm2.
For data set [3], the target named is PI3K-γ (Homo sapiens, UniProt P48736). The data set can be described thus: PI3K-gamma fluorescence polarization assay. The following applies: read-out: IC50 PI3Kγ. (In general: In fluorescence polarisation assays a small probe gives low polarisation when free and higher when bound to something large.)
Sequence of PI3K-γ (P48736 whole entry, species assumed): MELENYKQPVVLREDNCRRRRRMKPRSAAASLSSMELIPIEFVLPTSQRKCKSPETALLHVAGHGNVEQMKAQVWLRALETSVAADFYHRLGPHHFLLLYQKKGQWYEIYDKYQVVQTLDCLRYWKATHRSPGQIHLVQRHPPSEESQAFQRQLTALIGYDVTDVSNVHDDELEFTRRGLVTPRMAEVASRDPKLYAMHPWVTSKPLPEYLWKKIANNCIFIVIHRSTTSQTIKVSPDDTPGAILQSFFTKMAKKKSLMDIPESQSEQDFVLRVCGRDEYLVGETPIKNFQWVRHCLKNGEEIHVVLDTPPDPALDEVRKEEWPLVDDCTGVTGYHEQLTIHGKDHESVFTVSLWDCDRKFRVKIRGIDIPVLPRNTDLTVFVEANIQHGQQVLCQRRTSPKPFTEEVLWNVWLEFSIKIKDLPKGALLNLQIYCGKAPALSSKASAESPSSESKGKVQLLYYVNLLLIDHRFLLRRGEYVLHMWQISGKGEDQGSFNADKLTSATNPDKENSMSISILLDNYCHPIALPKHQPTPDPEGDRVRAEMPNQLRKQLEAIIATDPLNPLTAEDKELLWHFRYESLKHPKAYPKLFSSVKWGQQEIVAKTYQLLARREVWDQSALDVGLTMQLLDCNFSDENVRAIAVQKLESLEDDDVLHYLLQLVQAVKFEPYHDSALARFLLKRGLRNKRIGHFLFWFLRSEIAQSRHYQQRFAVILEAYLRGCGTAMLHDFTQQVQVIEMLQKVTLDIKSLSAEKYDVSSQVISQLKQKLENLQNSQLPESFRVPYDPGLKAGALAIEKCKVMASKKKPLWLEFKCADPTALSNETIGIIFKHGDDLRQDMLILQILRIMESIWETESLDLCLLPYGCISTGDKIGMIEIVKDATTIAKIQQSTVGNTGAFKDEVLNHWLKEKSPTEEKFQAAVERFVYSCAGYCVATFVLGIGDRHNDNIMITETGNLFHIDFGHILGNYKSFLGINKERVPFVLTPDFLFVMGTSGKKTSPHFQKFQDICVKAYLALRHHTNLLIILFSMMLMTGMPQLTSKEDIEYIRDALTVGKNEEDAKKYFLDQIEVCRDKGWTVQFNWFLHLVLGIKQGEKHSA
For data set [4], the target named is Human mTOR (FLAG-TOR) (Homo sapiens, UniProt P42345). Nature of the data set: mTOR kinase assay (DELFIA format, purified enzyme). The following applies: read-out: IC50 mTOR. The format is biochemical.
Sequence of Human mTOR (FLAG-TOR) (P42345 1360-2549 limits assumed): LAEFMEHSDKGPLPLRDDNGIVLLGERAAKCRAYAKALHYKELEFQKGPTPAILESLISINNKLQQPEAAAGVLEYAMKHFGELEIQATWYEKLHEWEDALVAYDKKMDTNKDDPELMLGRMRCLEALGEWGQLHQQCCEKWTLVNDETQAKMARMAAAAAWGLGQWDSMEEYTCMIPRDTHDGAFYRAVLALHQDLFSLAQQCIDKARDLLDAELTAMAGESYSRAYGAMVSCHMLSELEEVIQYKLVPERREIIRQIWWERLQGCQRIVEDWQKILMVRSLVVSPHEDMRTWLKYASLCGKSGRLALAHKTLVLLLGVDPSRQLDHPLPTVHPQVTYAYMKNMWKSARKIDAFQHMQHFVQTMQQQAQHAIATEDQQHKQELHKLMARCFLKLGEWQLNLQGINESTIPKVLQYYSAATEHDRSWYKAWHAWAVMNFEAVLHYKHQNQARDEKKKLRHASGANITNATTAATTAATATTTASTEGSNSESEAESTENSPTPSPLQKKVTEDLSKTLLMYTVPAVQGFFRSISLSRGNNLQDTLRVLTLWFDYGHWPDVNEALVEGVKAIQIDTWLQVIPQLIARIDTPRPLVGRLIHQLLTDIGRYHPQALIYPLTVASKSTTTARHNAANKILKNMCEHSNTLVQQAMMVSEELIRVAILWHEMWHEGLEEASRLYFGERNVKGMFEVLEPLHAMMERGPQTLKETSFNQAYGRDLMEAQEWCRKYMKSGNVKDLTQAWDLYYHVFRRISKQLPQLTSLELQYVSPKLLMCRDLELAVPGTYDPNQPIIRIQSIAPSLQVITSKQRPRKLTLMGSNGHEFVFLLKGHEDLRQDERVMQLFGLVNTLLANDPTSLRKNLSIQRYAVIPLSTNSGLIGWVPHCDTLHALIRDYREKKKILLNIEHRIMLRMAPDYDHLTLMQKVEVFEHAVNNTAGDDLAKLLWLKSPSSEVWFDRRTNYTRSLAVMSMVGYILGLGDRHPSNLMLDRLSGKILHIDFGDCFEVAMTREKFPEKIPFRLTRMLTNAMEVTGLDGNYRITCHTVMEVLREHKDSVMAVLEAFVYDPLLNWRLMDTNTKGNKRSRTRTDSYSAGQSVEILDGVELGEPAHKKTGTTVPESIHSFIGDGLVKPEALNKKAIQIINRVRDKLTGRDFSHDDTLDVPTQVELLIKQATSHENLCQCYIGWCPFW
The target of data set [5] is PI3K-α (Homo sapiens, UniProt P42336). The data set can be described thus: PI3K-alpha fluorescence polarization assay. To be noted: read-out: IC50 PI3Kα.
Sequence of PI3K-α (P42336 whole entry, species assumed): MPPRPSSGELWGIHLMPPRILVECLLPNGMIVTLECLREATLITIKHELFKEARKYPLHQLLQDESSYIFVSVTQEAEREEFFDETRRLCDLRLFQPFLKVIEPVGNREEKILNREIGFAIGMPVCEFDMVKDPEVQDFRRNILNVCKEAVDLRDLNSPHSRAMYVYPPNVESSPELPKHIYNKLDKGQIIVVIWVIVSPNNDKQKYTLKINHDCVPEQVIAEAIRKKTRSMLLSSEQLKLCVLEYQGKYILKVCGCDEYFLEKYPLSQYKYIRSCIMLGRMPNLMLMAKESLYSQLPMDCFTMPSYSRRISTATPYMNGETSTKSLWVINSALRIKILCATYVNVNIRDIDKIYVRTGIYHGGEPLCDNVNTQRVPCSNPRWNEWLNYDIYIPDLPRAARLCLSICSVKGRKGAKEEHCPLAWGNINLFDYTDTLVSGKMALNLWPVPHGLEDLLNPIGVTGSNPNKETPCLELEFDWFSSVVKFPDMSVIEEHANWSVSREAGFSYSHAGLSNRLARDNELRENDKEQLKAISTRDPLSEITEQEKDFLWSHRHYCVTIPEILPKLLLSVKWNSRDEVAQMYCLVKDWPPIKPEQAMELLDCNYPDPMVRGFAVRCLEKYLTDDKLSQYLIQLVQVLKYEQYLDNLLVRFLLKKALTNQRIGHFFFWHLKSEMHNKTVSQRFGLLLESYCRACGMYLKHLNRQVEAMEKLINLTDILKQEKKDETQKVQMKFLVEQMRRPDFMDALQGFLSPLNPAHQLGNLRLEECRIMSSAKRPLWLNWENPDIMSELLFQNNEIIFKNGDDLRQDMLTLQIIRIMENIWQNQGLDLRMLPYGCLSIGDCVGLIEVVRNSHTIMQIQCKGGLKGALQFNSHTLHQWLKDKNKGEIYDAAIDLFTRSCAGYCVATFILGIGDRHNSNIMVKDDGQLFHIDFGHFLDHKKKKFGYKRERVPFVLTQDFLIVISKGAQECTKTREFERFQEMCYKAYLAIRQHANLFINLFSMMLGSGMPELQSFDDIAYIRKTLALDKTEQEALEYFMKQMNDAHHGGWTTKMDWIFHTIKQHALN
Sequence of PI3K-α (P27986 whole entry partner, species assumed): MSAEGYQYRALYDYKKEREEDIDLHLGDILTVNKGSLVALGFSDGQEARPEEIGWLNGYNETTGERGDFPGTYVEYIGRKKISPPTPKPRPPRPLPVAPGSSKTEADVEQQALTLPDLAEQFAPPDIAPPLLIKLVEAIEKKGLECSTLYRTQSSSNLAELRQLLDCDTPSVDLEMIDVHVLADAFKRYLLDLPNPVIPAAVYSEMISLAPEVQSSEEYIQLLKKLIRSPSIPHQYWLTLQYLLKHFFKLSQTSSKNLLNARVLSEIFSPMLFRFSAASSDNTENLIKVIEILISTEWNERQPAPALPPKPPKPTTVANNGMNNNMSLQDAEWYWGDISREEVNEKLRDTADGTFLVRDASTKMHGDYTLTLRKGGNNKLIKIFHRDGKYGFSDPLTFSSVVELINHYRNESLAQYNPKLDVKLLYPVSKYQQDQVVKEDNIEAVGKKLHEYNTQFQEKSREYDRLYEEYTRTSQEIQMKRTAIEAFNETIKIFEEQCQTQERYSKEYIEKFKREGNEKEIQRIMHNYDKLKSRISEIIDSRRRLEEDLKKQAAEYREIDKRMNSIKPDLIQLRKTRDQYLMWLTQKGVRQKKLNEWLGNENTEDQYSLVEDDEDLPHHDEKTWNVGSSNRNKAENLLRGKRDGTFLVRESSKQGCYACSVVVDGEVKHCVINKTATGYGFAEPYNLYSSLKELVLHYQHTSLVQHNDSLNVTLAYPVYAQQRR
The test system of data set [6] is human prostate LNCap tumor cell line. Nature of the data set: In vitro cell culture growth assay (MTS), LNCap. To be noted: Homo sapiens, LNCaP, 72 h, read-out: IC50 LNCap.
For data set [7], the target named is human SMG-1 (hSMG-1) (Homo sapiens, UniProt Q96Q15). Nature of the data set: hSMG-1 kinase assay (DELFIA). The class given is biochemical.

Values joined by “and” are separate entries in the source; they are usually repeats but may differ in a detail not shown here. Equal entries are not always repeated. Where two headings read alike, the source gives them in different places.

The IC50 is the concentration that gives 50% inhibition. Usually melting point stands for the temperature, or range, at which the solid turns liquid. `O=C(Nc1ccncc1)Nc1ccc(-c2nc(N3CCOCC3)nc(N3CC4CCC(C3)O4)n2)cc1` [Example 48, 1-{4-[4-morpholin-4-yl-6-(8-oxa-3-azabicyclo[3.2.1]oct-3-yl)-1,3,5-triazin-2-yl]phenyl}-3-pyridin-4-ylurea] returned a melting point of 258 °C. Besides, the IC50 in data set [1] was found to be 38 nM. Besides, the IC50 in data set [2] turned out to be 48 nM. In data set [3], the IC50 amounted to 40 nM. Besides, the IC50 in data set [4] turned out to be 1.8 nM. Also, in data set [5], the IC50 was 6 nM.
Consider `O=C(Nc1ccncc1)Nc1ccc(-c2nc(OC3CCOCC3)nc(N3CCOCC3)n2)cc1` [Example 59, 1-{4-[4-morpholin-4-yl-6-(tetrahydro-2H-pyran-4-yloxy)-1,3,5-triazin-2-yl]phenyl}-3-pyridin-4-ylurea], for which the melting point amounted to 238 °C. The IC50 in data set [1] came out at 14 nM. In addition, the IC50 in data set [2] was found to be 16 nM. Also, in data set [3], the IC50 is 30 nM. Moreover, the IC50 in data set [4] came to 1.05 nM. In addition, the IC50 in data set [5] was 3 nM.
With `O=C(Nc1ccncc1)Nc1ccc(-c2nc(C3CCOCC3)nc(N3CCOCC3)n2)cc1` [Example 101, 1-{4-[4-Morpholin-4-yl-6-(tetrahydro-pyran-4-yl)-[1,3,5]triazin-2-yl]-phenyl}-3-pyridin-4-yl-urea], the IC50 worked out at 32.7 nM in data set [1]; 3 nM in data set [6]; 37.3 nM in data set [2]; 33 nM in data set [3]; 0.44 nM in data set [4]; 6 nM in data set [5].
On to `O=C(Nc1ccncc1)Nc1ccc(-c2nc(N3CCC3)nc(N3CCOCC3)n2)cc1` [Example 140, 1-[4-(4-azetidin-1-yl-6-morpholin-4-yl-1,3,5-triazin-2-yl)phenyl]-3-pyridin-4-ylurea], for which the melting point is 212 °C. Further, the IC50 in data set [1] stood at 225 nM. Further, the IC50 in data set [2] was found to be 279 nM. The IC50 in data set [3] was 100 nM. In addition, in data set [4], the IC50 was 27 nM. Besides, the IC50 in data set [5] was 27 nM.
The molecule `COC(=O)c1ccc(NC(=O)Nc2ccc(-c3nc(N4CCC4)nc(N4CCOCC4)n3)cc2)cc1` [Example 141, methyl 4-({[4-(4-azetidin-1-yl-6-morpholin-4-yl-1,3,5-triazin-2-yl)phenyl]carbamoyl}amino)benzoate] displayed a melting point of 212 °C. Moreover, the IC50 in data set [3] worked out at 3380 nM. For the same molecule, the IC50 in data set [4] stood at 26 nM. For the same molecule, the IC50 in data set [5] is 241 nM.
For `O=C(Nc1ccc(C(=O)O)cc1)Nc1ccc(-c2nc(N3CCC3)nc(N3CCOCC3)n2)cc1` [Example 195, 4-({[4-(4-azetidin-1-yl-6-morpholin-4-yl-1,3,5-triazin-2-yl)phenyl]carbamoyl}amino) benzoic acid], in that order: 204 °C, 498 nM, 21 nM and 115 nM.
Turning to `CC(C)(C)OC(=O)N1C[C@H]2C[C@@H]1CN2c1nc(-c2ccc(NC(=O)Nc3ccncc3)cc2)nc(N2CCOCC2)n1` [Example 256, tert-butyl(1R,4R)-5-(4-morpholin-4-yl-6-{4-[(pyridin-4-ylcarbamoyl)amino]phenyl}-1,3,5-triazin-2-yl)-2,5-diazabicyclo[2.2.1]heptane-2-carboxylate], the melting point came out at 192 °C. Further, in data set [3], the IC50 came out at 182 nM. Moreover, the IC50 in data set [4] came out at 32 nM. Also, the IC50 in data set [5] is 68 nM.
For `CC(=O)c1ccc(NC(=O)Nc2ccc(-c3nc(N4CCOCC4)nc(N4C[C@H]5C[C@@H]4CN5C(=O)OC(C)(C)C)n3)cc2)cc1` [Example 257, tert-butyl (1R,4R)-5-[4-(4-{[(4-acetylphenyl)carbamoyl]amino}phenyl)-6-morpholin-4-yl-1,3,5-triazin-2-yl]-2,5-diazabicyclo[2.2.1]heptane-2-carboxylate], in that order: 202 °C, 323 nM, 85 nM and 90 nM.
Take `O=C(Nc1ccncc1)Nc1ccc(-c2nc(N3CCOCC3)nc(N3C(CO)CCC3CO)n2)cc1` (stereo not shown) [Example 268, 1-(4-{4-[2,5-bis(hydroxymethyl)pyrrolidin-1-yl]-6-morpholin-4-yl-1,3,5-triazin-2-yl}phenyl)-3-pyridin-4-ylurea]: the IC50 in data set [1] was 59 nM; in data set [6], 38 nM; in data set [2] (PC3-mm2 cells), 107 nM; in data set [2], 107 nM; in data set [3], 41 nM; in data set [3] (listed as 728), 47 nM. In addition, the IC50 is 0.39 nM and 0.38 nM in data set [4]; 12 nM in data set [5]; 10.5 nM in data set [5] (listed as 728).
Consider `CNC(=O)Nc1ccc(-c2nc(-c3ccc(NC(=O)Nc4cccnc4)cc3)nc(N3C(C)COCC3C)n2)cc1` (stereo not shown) [Example 463, 1-{4-[4-(3,5-dimethylmorpholin-4-yl)-6-{4-[(methylcarbamoyl)amino]phenyl}-1,3,5-triazin-2-yl]phenyl}-3-pyridin-3-ylurea], for which the IC50 amounted to 510 nM in data set [7] and 17 nM in data set [4].
Consider `CNC(=O)Nc1ccc(-c2nc(-c3ccc(NC(=O)Nc4ccc(C(N)=O)cc4)cc3)nc(N3CC4CCC(C3)O4)n2)cc1` [Example 464, 4-[({4-[4-{4-[(methylcarbamoyl)amino]phenyl}-6-(8-oxa-3-azabicyclo[3.2.1]oct-3-yl)-1,3,5-triazin-2-yl]phenyl}carbamoyl)amino]benzamide], for which the concentration for half-maximal inhibition (IC50) was 3 nM in data set [7] and 1 nM in data set [4].
For `CNC(=O)Nc1ccc(-c2nc(-c3ccc(NC(=O)Nc4cccc(C(N)=O)c4)cc3)nc(N3CC4CCC(C3)O4)n2)cc1` [Example 465, 3-[({4-[4-{4-[(methylcarbamoyl)amino]phenyl}-6-(8-oxa-3-azabicyclo[3.2.1]oct-3-yl)-1,3,5-triazin-2-yl]phenyl}carbamoyl)amino]benzamide], in that order: 5 nM and 1 nM.
Consider `CNC(=O)Nc1ccc(-c2nc(-c3ccc(NC(=O)Nc4cccc(C(N)=O)c4)cc3)nc(N3C(C)COCC3C)n2)cc1` (stereo not shown) [Example 469, 3-[({4-[4-(3,5-dimethylmorpholin-4-yl)-6-{4-[(methylcarbamoyl)amino]phenyl}-1,3,5-triazin-2-yl]phenyl}carbamoyl)amino]benzamide], for which the results for the IC50 in data set [7], in data set [6] and in data set [4] were 130 nM, 2800 nM and 23 nM, respectively.
For `CNC(=O)Nc1ccc(-c2nc(-c3ccc(NC(=O)Nc4ccc(C(N)=O)cc4)cc3)nc(N3C(C)COCC3C)n2)cc1` (stereo not shown) [Example 470, 4-[({4-[4-(3,5-dimethylmorpholin-4-yl)-6-{4-[(methylcarbamoyl)amino]phenyl}-1,3,5-triazin-2-yl]phenyl}carbamoyl)amino]benzamide], in that order: 195 nM, 1000 nM and 7 nM.
Turning to `CNC(=O)Nc1ccc(-c2nc(-c3ccc(NC(=O)Nc4ccncc4)cc3)nc(N3CC4CCC(C3)O4)n2)cc1` [Example 471, 1-methyl-3-{4-[4-(8-oxa-3-azabicyclo[3.2.1]oct-3-yl)-6-{4-[(pyridin-4-ylcarbamoyl)amino]phenyl}-1,3,5-triazin-2-yl]phenyl}urea], the IC50 turned out to be 5 nM in data set [7] and 130 nM in data set [6].
Regarding `CNC(=O)Nc1ccc(-c2nc(-c3ccc(NC(=O)Nc4ccncc4)cc3)nc(N3C(C)COCC3C)n2)cc1` (stereo not shown) [Example 472, 1-{4-[4-(3,5-dimethylmorpholin-4-yl)-6-{4-[(methylcarbamoyl)amino]phenyl}-1,3,5-triazin-2-yl]phenyl}-3-pyridin-4-ylurea], the IC50 in data set [7] stood at 200 nM; in data set [6] it was 3800 nM; in data set [4], 35 nM.
Turning to `O=C(Nc1ccc(-c2nc(N3CCOCC3)nc(N3CCOCC3)n2)cc1)C(F)F` [Example 473, N-[4-(4,6-dimorpholin-4-yl-1,3,5-triazin-2-yl)phenyl]-2,2-difluoroacetamide], the values for the IC50 in data set [7] and in data set [4] were 3650 nM and 35 nM, respectively.
On the same counts, the results for `c1cc(-c2nc(N3CCOCC3)nc(N3CCOCC3)n2)ccc1NC1=NCCN1` [Example 474, N-[4-(4,6-dimorpholin-4-yl-1,3,5-triazin-2-yl)phenyl]-4,5-dihydro-1H-imidazol-2-amine] are 5650 nM and 48 nM.
For `c1cc(-c2nc(N3CCOCC3)nc(N3CCOCC3)n2)ccc1-c1nn[nH]n1` [Example 475, 2,4-dimorpholin-4-yl-6-[4-(2H-tetrazol-5-yl)phenyl]-1,3,5-triazine], in that order: greater than 20000 nM and 18500 nM.
For `CNC(=O)Nc1ccc(-c2nc(N3CCOCC3)nc(N3CCOCC3)n2)cc1` [Example 476, 1-[4-(4,6-dimorpholin-4-yl-1,3,5-triazin-2-yl)phenyl]-3-methylurea], in that order: 19 nM and 5 nM.
For the molecule `O=C(Cc1ccc(-c2nc(N3CCOCC3)nc(N3CCOCC3)n2)cc1)Nc1cccnc1` [Example 477, 2-[4-(4,6-dimorpholin-4-yl-1,3,5-triazin-2-yl)phenyl]-N-pyridin-3-ylacetamide], the IC50 in data set [7] was 9250 nM; in data set [4], 14000 nM.

The values are drawn from patent publication US20090304692A1, “TRIAZINE COMPOUNDS AS PI3 KINASE AND MTOR INHIBITORS” (Wyeth, priority 2008, published 2009).
